Assay results from ChEMBL document CHEMBL1201862, “PubChem BioAssay data set” (2004).
Active and inactive are the calls of the source.

Key:
[1] = target: T1, Neuropeptide Y receptor type 2 (Homo sapiens, UniProt P49146); assay type: functional, cell-based;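 on IC50: HEK293 cells expressing the receptor and a CNG channel; stimulus was NPY near EC95 followed by isoproterenol to raise cAMP; antagonist potency measured as restoring cAMP signal that NPY suppresses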
T1 sequence (P49146 whole entry): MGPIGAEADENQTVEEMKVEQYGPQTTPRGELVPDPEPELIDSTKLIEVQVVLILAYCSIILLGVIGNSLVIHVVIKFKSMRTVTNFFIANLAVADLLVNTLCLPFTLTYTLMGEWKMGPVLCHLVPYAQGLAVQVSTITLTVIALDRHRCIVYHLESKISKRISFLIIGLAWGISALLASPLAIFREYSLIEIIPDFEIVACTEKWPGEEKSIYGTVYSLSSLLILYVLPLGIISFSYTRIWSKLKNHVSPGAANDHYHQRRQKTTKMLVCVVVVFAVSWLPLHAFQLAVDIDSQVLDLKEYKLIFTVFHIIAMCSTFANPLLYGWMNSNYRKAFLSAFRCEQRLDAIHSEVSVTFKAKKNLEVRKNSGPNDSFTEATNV

[2] = target: T2, Neuropeptide Y receptor type 1 (Homo sapiens, UniProt P25929); assay type: functional;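 on IC50: HEK293 cells with a CNG channel challenged with NPY then isoproterenol; potency as antagonist that reverses NPY suppression of cAMP signal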
T2 sequence (P25929 whole entry): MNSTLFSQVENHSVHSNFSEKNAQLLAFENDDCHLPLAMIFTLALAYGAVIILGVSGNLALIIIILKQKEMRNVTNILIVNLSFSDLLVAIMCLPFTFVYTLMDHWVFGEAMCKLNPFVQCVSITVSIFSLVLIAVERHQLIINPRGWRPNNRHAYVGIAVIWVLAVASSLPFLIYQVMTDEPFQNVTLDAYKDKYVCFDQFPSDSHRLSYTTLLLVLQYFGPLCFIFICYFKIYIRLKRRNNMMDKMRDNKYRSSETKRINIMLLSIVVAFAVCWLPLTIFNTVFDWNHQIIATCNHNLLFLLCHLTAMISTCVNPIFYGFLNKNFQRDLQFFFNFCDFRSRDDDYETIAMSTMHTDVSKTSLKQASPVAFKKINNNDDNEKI

[3] = test system: HEK293; experiment: Fluorescence-based counterscreen for potentiators or agonists of NPY-Y2: cell-based high-throughput dose response assay to identify inhibitors of cyclic nucleotide gated ion channel (CNGC) activity. In this assay, the parental HEK293 cell line transfected with a cyclic-nucleotide gated ion channel (CNGC)-based cAMP sensor is used to measure inhibition of isoproterenol-induced CNGC activity by test compound.; assay type: functional; conditions: Homo sapiens;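 further: stimulus is 1 µM isoproterenol at EC100 plus PDE inhibitor Ro 20-1724 at 25 µM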
[4] = target: T1, Neuropeptide Y receptor type 2; experiment: Fluorescence-based cell-based high-throughput dose response assay for agonists of NPY-Y2. [Related pubchem assays: 1703 (Screening assay (CNGC inhibitors).), 1359 (Screening assay (NPY-Y2 potentiators or agonists).), 1304 (Screening assay (NPY-Y1 potentiators or agonists).), 1710 (Screening assay (NPY-Y2 agonists).), 1791 (Summary AID.)]; assay type: functional
[5] = HEp-2 cell cytotoxicity, dose response, cytotoxicity control for RSV inhibitor project, HTS (AID 2410); assay type: functional; conditions: human respiratory syncytial virus
[6] = target: T2, Neuropeptide Y receptor type 1; experiment: Fluorescence-based counterscreen for agonists of NPY-Y2: cell-based high-throughput dose response assay for agonists of NPY-Y1.; assay type: functional
[7] = target: Peroxisome proliferator-activated receptor gamma/Nuclear receptor coactivator 1 (Homo sapiens, UniProt P37231); assay type: functional;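 further: agonist potency as compounds enhance coactivator SRC-1 recruitment to PPARgamma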
[8] = target: Peroxisome proliferator-activated receptor gamma/Nuclear receptor coactivator 2 (Homo sapiens, UniProt P37231); assay type: functional;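 further: agonist potency for raising coactivator recruitment to the receptor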
[9] = target: Peroxisome proliferator-activated receptor gamma/Nuclear receptor coactivator 3 (Homo sapiens, UniProt P37231); assay type: functional;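 further: agonist potency for raising coactivator recruitment to the receptor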
[10] = THP-1 cell cytotoxicity, dose response, cytotoxicity control for Vif-APOBEC3G degradation inhibitor project, THP-1 cells (AID 1117359); assay type: functional; conditions: Human immunodeficiency virus 1, THP-1
[11] = inhibitors of Vif binding to APOBEC3G peptide, primary screen, biochemical, TR-FRET, GST-Vif 1-94, biotin-A3G peptide, dose response retest (AID 1117319); assay type: functional;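 further: TR-FRET signal of purified GST-Vif binding a biotinylated A3G peptide; inhibitors lower the FRET signal by blocking Vif and A3G binding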
[12] = target: Protein Tat (Human immunodeficiency virus type 1 group M subtype B (isolate HXB2)(HIV-1), UniProt P04608); assay type: functional;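 further: tat binding to TAR RNA read out by fluorescence polarization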
[13] = test system: Vero; experiment: Vero cell cytotoxicity, cytotoxicity control for flavivirus capping enzyme inhibitors (AID 588742); assay type: functional; conditions: Chlorocebus sabaeus
[14] = target: T3, Bcl-2-like protein 10 (Homo sapiens, UniProt Q9HD36); experiment: Biochemical TR3 FP assay of Bcl-B inhibitor potency, EC50 (AID 1243); assay type: functional
T3 sequence (Q9HD36 whole entry): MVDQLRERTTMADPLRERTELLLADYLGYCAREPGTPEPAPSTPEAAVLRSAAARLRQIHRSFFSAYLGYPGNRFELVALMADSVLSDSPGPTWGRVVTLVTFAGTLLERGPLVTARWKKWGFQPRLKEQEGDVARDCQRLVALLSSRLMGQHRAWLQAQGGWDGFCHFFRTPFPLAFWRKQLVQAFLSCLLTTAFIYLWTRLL

[15] = cells; assay type: functional, cell-based
[16] = cells; assay type: functional, cell-based; remark: listed apart in the source

Sequence of Peroxisome proliferator-activated receptor gamma/Nuclear receptor coactivator 1 (P37231 whole entry): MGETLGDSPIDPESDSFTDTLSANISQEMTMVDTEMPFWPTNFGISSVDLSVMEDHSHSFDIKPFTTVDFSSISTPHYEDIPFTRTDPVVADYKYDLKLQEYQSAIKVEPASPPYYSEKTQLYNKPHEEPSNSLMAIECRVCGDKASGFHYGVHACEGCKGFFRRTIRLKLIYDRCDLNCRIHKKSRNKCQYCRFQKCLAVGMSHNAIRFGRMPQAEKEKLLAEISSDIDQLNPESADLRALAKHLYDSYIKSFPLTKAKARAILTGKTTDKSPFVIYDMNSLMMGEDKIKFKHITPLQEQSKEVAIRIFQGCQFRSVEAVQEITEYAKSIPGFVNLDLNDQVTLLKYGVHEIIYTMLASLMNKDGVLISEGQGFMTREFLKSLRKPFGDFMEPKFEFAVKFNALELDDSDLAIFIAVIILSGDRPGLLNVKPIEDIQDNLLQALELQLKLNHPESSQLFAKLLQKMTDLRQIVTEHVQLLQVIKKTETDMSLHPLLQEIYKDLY
Sequence of Peroxisome proliferator-activated receptor gamma/Nuclear receptor coactivator 1 (Q15788 whole entry, further chain): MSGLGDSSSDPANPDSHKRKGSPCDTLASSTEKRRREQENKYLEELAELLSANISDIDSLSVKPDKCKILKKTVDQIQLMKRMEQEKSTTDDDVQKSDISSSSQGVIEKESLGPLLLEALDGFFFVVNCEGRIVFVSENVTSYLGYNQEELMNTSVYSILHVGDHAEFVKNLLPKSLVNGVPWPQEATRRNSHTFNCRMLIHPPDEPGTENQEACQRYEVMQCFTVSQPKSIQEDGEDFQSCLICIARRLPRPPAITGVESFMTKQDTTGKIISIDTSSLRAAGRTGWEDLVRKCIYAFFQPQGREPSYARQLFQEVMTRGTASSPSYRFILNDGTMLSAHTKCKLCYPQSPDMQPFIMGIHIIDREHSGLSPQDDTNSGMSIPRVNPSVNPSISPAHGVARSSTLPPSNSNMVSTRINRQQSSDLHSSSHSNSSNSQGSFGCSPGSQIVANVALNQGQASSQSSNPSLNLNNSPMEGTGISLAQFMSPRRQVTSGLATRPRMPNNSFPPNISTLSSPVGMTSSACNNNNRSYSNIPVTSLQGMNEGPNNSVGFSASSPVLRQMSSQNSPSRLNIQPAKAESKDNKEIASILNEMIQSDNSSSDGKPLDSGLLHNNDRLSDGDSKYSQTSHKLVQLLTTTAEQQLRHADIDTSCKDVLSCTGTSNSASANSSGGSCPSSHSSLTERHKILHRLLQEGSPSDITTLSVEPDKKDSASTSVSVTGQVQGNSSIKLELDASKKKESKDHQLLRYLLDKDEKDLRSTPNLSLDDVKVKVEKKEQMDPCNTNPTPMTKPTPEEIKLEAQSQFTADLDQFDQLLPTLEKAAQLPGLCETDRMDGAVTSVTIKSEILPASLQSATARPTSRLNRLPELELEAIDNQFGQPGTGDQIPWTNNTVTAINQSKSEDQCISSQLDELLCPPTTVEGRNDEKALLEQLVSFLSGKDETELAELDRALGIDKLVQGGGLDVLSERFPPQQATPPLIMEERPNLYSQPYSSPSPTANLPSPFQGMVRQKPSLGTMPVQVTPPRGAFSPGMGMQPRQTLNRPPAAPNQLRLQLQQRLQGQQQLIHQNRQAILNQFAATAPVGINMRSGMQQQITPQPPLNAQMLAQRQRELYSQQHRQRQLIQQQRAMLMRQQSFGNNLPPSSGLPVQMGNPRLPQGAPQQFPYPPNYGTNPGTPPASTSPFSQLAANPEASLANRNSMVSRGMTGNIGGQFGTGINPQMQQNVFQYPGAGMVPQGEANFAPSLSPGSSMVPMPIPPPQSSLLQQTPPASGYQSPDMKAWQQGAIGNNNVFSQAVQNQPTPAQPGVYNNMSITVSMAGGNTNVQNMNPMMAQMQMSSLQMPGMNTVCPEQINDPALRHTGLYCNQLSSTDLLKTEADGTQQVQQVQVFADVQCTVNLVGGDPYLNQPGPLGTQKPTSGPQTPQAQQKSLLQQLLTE
Sequence of Peroxisome proliferator-activated receptor gamma/Nuclear receptor coactivator 2 (P37231 whole entry): as the sequence (P37231 whole entry) above
Sequence of Peroxisome proliferator-activated receptor gamma/Nuclear receptor coactivator 2 (Q15596 whole entry, further chain): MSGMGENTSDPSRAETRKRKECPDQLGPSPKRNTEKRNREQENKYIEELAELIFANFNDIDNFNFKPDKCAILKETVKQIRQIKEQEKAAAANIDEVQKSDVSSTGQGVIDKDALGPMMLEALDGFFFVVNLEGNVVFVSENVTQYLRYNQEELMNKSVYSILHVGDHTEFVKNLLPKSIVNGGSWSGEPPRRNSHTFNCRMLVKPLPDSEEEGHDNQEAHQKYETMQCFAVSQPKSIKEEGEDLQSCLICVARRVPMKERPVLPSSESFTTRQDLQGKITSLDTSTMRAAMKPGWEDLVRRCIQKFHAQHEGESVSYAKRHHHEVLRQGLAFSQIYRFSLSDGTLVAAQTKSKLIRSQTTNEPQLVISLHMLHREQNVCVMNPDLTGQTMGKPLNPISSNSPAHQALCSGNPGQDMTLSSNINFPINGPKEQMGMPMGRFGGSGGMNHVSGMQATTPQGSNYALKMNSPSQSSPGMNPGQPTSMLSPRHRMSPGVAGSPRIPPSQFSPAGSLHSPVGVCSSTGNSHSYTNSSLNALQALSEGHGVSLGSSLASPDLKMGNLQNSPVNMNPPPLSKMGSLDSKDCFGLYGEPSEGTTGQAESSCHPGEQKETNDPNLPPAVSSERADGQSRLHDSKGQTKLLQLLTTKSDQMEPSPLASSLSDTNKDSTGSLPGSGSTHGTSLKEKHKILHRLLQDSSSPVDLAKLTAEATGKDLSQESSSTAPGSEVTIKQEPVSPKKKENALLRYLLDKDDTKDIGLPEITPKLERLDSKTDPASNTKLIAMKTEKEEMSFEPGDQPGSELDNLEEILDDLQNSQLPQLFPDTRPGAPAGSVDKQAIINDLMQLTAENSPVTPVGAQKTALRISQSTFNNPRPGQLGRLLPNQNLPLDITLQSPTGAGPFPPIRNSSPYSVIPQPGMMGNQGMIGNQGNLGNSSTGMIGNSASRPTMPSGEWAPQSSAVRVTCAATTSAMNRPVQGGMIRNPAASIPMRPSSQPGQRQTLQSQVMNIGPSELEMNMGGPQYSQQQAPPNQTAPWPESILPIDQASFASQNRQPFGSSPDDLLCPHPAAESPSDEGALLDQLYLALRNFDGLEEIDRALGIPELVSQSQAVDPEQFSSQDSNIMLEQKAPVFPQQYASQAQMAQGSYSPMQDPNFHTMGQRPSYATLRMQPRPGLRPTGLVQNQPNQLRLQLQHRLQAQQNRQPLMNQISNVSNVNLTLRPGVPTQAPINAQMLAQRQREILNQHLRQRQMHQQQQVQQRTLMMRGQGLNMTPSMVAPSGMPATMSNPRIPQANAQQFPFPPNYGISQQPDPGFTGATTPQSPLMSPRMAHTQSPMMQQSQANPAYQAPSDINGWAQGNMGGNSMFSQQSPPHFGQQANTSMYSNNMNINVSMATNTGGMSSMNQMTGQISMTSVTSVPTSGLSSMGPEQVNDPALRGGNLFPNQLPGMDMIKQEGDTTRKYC
Sequence of Protein Tat (P04608 whole entry): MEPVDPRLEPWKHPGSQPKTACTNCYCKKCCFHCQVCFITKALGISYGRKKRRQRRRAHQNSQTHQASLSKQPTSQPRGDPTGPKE

Question: For COC(=O)c1cc(Cl)c(NC(=O)c2ccc(C(C)(C)C)cc2)cc1OC, which IC50 [1] is on record?
Answer: 4.32 µM (active)

Question: And the IC50 [2]?
Answer: 5.31 µM (active)

Question: Which results are given for CC(=O)Nc1ccc(-c2cc3ccccc3o2)cc1?
Answer: EC50 [3]: 27.4 µM (not active); EC50 [4]: > 35.4 µM (not active); CC50 [5]: 28.2 µM (active); EC50 [6]: 28.9 µM (not active)

Question: Which EC50 [7] does the source give for CC(C)(C)c1ccc(OCc2ccc(C(=O)N3CCOCC3)o2)cc1 here?
Answer: > 79.4 µM (not active)

Question: What about the EC50 [8] of the same molecule?
Answer: > 79.4 µM (not active)

Question: And the EC50 [9]?
Answer: > 79.4 µM (not active)

Question: Which CC50 [10] does the source give for Oc1cccc(/C=N/c2c(-c3ccco3)nc3ccccn23)c1 here?
Answer: > 40 µM (active)

Question: What about the IC50 [11] of the same molecule?
Answer: > 66.8 µM (active)

Question: What about the IC50 [12] of the same molecule?
Answer: 53.3 µM (inconclusive)

Question: And the CC50 [13]?
Answer: > 40 µM (active)

Question: And the EC50 [14]?
Answer: 9.07 µM (active)

Question: What about the EC50 [15] of the same molecule?
Answer: 66.5 µM (active)

Question: And the EC50 [16]?
Answer: > 350 µM (not active)
